Data from patent publication US20250282818A1, “SYRBACTIN MACROLACTAMS AND UNNATURAL ANALOGS AS PROTEASOME INHIBITORS FOR THE TREATMENT OF MULTIPLE MYELOMA AND CHEMOENZYMATIC SYNTHESIS THEREOF” (UNIVERSITY OF FLORIDA RESEARCH FOUNDATION,INCORPORATED, priority 2022, published 2025).
Entries after “also recorded” stand apart in the source; their conditions may differ.

What was measured:
RPMI 8226 cells [1] = test: RPMI 8226 cytotoxicity EC50 measurements (WST-1); format: cell-based, human; settings: RPMI 8226, 48 hours
Description: (§1) RPMI 8226 cells were seeded in a 96-well plate (20,000 cells/well) in cell culture media supplemented with indicated compounds (1,000× stock in DMSO) or DMSO and cultured for 48 hours. Toxicity was determined using the WST-1 assay (Roche) according to the protocol of the manufacturer. (n=3)
as §1, with “Cytotoxicity of phenyl cepafungin (50) and hybrid analog (S39) in RPMI 8226 RPMI” for “RPMI”

proteasome subunit β5 = target: T1, proteasome subunit β5 (Homo sapiens, UniProt P28074); test: Proteasome inhibition IC50 measurements in RPMI 8226 cells, substrate Suc-LLVY-AMC (β5); format: cell-based; settings: β5, RPMI 8226 cells
T1 construct: Cells were then collected and lysed; endogenous in cells; host or cells: RPMI 8226
Text: Our preliminary series of analogs (FIG. 3), including the natural product glidobactin A (2), were synthesized by largely the same route (FIG. 2).^13 Desoxycepafungin (38) was synthesized from Boc-Lys(Boc)-OH to assess the role of the macrocycle hydroxylation in 1 towards proteasome inhibition. The saturated cepafungin analog 39 was designed to address the possible role of rigidity in the tail fragment induced by the diene seen in many natural cepafungins and glidobactins. An analog bearing unsaturation at its macrocyclic lysine was envisioned to provide a head-to-head comparison between the cepafungin and syringolin A (4) macrocyclic core. […] Proteasome subunit β5 IC50 values were determined in situ in RPMI 8226 cells (FIG. 3). In close agreement with prior measurement of β5 IC50 for natural 1 and 2 in purified yeast proteasome,^8 in our hands the additional branching methyl in 1 indeed leads to ca. 5-fold improved IC50 compared to 2 in RPMI 8226 cells. […] Likewise, saturation of the fatty acid fragment in 39 causes ca. 14-fold decrease in β5 inhibition. This preliminary series of analogs highlighted that the macrocyclic hydroxylation, fatty acid unsaturation, and terminal lipid functionality are critical for potent proteasome inhibitory activity.
Cellular assays were performed with human multiple myeloma cell line RPMI 8226. First, relative inhibition of proteasome subunits β5 and β2 for all analogs and the natural product was measured at 30 nM compound concentration. Following incubation of the analogs in cell culture for 6 hours, cells were lysed and fluorogenic subunit-specific peptide substrates Suc-LLVY-AMC (β5) or Ac-RLR-AMC (β2) were incubated with the lysates, and fluorescence readings provided relative proteasome activity levels with respect to DMSO (FIG. 6A). Next, cytotoxicity screening was performed at 30 nM and 100 nM concentrations for better coverage of dynamic range (FIG. 6B). […] Therefore, the improved cytotoxicity of phenyl cepafungin 50 likely results from a more pronounced loss of β5 function in RPMI 8226 cells. This drastic increase in proteasome inhibition may be due to pi-stacking of the lipid tail phenyl ring with the β6 subunit residues Tyr106 and/or Tyr5. The β2 subunit-bound natural product has residues Tyr102 and Phe103 on the adjacent β3 subunit oriented further away from the terminal lipid methyl groups, and presumably would not facilitate pi-stacking to the extent possible at the adjacent β6 subunit (see FIG. 4, FIG. 9). […]
RPMI 8226 cells were seeded in a 6-well plate (1,000,000 cells/well) in cell culture media supplemented with indicated compounds (1,000× stock in DMSO) or DMSO and cultured for 6 hours. […] The plates were incubated at 37° C. for one hour and fluorescence was read at A360ex/A460em. […]

RPMI 8226 cells [2] = test: RPMI8226 cytotoxicity screening (WST-1); format: cell-based, human; settings: for cytotoxicity / activity compared with the natural product, in words: 30 nM and 100 nM compound concentration; for potency compared with parent natural product 1 in screening (FIG. 6A, 6B): 30 nM and 100 nM, cytotoxicities track with proteasome inhibition at 30 nM
Description: Cellular assays were performed with human multiple myeloma cell line RPMI 8226. First, relative inhibition of proteasome subunits β5 and β2 for all analogs and the natural product was measured at 30 nM compound concentration. Following incubation of the analogs in cell culture for 6 hours, cells were lysed and fluorogenic subunit-specific peptide substrates Suc-LLVY-AMC (β5) or Ac-RLR-AMC (β2) were incubated with the lysates, and fluorescence readings provided relative proteasome activity levels with respect to DMSO (FIG. 6A). Next, cytotoxicity screening was performed at 30 nM and 100 nM concentrations for better coverage of dynamic range (FIG. 6B). […] Therefore, the improved cytotoxicity of phenyl cepafungin 50 likely results from a more pronounced loss of β5 function in RPMI 8226 cells. This drastic increase in proteasome inhibition may be due to pi-stacking of the lipid tail phenyl ring with the β6 subunit residues Tyr106 and/or Tyr5. The β2 subunit-bound natural product has residues Tyr102 and Phe103 on the adjacent β3 subunit oriented further away from the terminal lipid methyl groups, and presumably would not facilitate pi-stacking to the extent possible at the adjacent β6 subunit (see FIG. 4, FIG. 9). […] These combined modifications were made in hopes that the effects of both substitutions would be additive.
[…] Toxicity was determined using the WST-1 assay (Roche) according to the protocol of the manufacturer. (n=3)

Compound | cytotoxicity / activity compared with the natural product, in words (RPMI 8226 cells [2]) | further results
CC(C)[C@H]1/C=C/C(=O)NCC[C@H](O)C[C@H](NC(=O)[C@@H](NC(=O)/C=C/C=C/CCCCCc2ccccc2)[C@@H](C)O)C(=O)N1 [S39, (2E,4E)-N-((2S,3R)-3-hydroxy-1-(((5S,8S,10S,E)-10-hydroxy-5-isopropyl-2,7-dioxo-1,6-diazacyclododec-3-en-8-yl)amino)-1-oxobutan-2-yl)-10-phenyldeca-2,4-dienamide] |  | EC50 (RPMI 8226 cells [1]; Homo sapiens, WST-1): 4.5 nM; cytotoxicity EC50 compared with natural product and 50, in words (RPMI 8226 cells [1]): significantly more potent than the natural product; also recorded: its cytotoxicity did not surpass that of 50
CC(C)CCCCC/C=C/C=C/C(=O)N[C@H](C(=O)N[C@H]1CCCCNC(=O)/C=C/[C@H](C)NC1=O)[C@@H](C)O [compound 38, Desoxycepafungin] |  | fold higher IC50 than 1 (proteasome subunit β5): ca. 11 fold
CC(C)CCCCC/C=C/C=C/C(=O)N[C@H](C(=O)N[C@H]1C[C@H](O)CCNC(=O)/C=C/[C@H](C)NC1=O)[C@@H](C)O [compound 40, (2E,4E)-N-((2S,3R)-3-hydroxy-1-(((5S,8S,10R,E)-10-hydroxy-5-methyl-2,7-dioxo-1,6-diazacyclododec-3-en-8-yl)amino)-1-oxobutan-2-yl)-11-methyldodeca-2,4-dienamide] | nearly inactive at both concentrations | 
CC(C)CCCCC/C=C/C=C/C(=O)N[C@H](C(=O)N[C@@H]1C(=O)N[C@@H](C)/C=C/C(=O)NCCC[C@@H]1O)[C@@H](C)O [compound 41, (2E,4E)-N-((2S,3R)-3-hydroxy-1-(((5S,8S,9S,E)-9-hydroxy-5-methyl-2,7-dioxo-1,6-diazacyclododec-3-en-8-yl)amino)-1-oxobutan-2-yl)-11-methyldodeca-2,4-dienamide] | nearly inactive at both concentrations | 
CC(C)CCCCC/C=C/C=C/C(=O)N[C@H](C(=O)N[C@H]1CC(=O)CCNC(=O)/C=C/[C@H](C)NC1=O)[C@@H](C)O [compound 42, (2E,4E)-N-((2S,3R)-3-hydroxy-1-(((5S,8S,E)-5-methyl-2,7,10-trioxo-1,6-diazacyclododec-3-en-8-yl)amino)-1-oxobutan-2-yl)-11-methyldodeca-2,4-dienamide] | potency approaching that of the natural product | 
CC(C)CCCCC/C=C/C=C/C(=O)N[C@H](C(=O)N[C@H]1C[C@@H](O)CCNC(=O)/C=C/[C@H](C(C)C)NC1=O)[C@@H](C)O [compound 43, (2E,4E)-N-((2S,3R)-3-hydroxy-1-(((5S,8S,10S,E)-10-hydroxy-5-isopropyl-2,7-dioxo-1,6-diazacyclododec-3-en-8-yl)amino)-1-oxobutan-2-yl)-11-methyldodeca-2,4-dienamide] | slightly greater cytotoxicity than the natural product | potency compared with parent natural product 1 in screening (FIG. 6A, 6B) (RPMI 8226 cells [2]): more potent than the parent natural product 1
CC[C@H](NC(=O)/C=C/C=C/CCCCCC(C)C)C(=O)N[C@H]1C[C@@H](O)CCNC(=O)/C=C/[C@H](C)NC1=O [compound 44, (2E,4E)-N—((S)-1-(((5S,8S,10S,E)-10-hydroxy-5-methyl-2,7-dioxo-1,6-diazacyclododec-3-en-8-yl)amino)-1-oxobutan-2-yl)-11-methyldodeca-2,4-dienamide] | Thr residue next to the cepafungin macrocycle appears to be favored over the ethyl sidechain of desoxy-Thr analog 44 | 
CC(C)CCCCC/C=C/C=C/C(=O)N[C@H](C(=O)N[C@H]1C[C@@H](O)CCNC(=O)/C=C/[C@H](C)NC1=O)[C@H](O)c1ccccc1 [compound 45, (2E,4E)-N-((1R,2S)-1-hydroxy-3-(((5S,8S,10S,E)-10-hydroxy-5-methyl-2,7-dioxo-1,6-diazacyclododec-3-en-8-yl)amino)-3-oxo-1-phenylpropan-2-yl)-11-methyldodeca-2,4-dienamide] | substantially weaker | 
CC(C)CCCCC/C=C/C=C/C(=O)N[C@H](C(=O)N[C@H]1C[C@@H](O)CCNC(=O)/C=C/[C@H](C)NC1=O)[C@H](O)C(C)C [compound 46, (2E,4E)-N-((2S,3R)-3-hydroxy-1-(((5S,8S,10S,E)-10-hydroxy-5-methyl-2,7-dioxo-1,6-diazacyclododec-3-en-8-yl)amino)-4-methyl-1-oxopentan-2-yl)-11-methyldodeca-2,4-dienamide] | approached the potency of the natural product | 
C[C@H]1/C=C/C(=O)NCC[C@H](O)C[C@H](NC(=O)[C@@H](NC(=O)/C=C/C=C/CCCCCC(C)(C)C)[C@@H](C)O)C(=O)N1 [compound 47, (2E,4E)-N-((2S,3R)-3-hydroxy-1-(((5S,8S,10S,E)-10-hydroxy-5-methyl-2,7-dioxo-1,6-diazacyclododec-3-en-8-yl)amino)-1-oxobutan-2-yl)-11,11-dimethyldodeca-2,4-dienamide] | improved cytotoxicity relative to 1 | potency compared with parent natural product 1 in screening (FIG. 6A, 6B) (RPMI 8226 cells [2]): more potent than the parent natural product 1
C[C@H]1/C=C/C(=O)NCC[C@H](O)C[C@H](NC(=O)[C@@H](NC(=O)/C=C/C=C/CCCCCC2CCCC2)[C@@H](C)O)C(=O)N1 [compound 48, (2E,4E)-10-cyclopentyl-N-((2S,3R)-3-hydroxy-1-(((5S,8S,10S,E)-10-hydroxy-5-methyl-2,7-dioxo-1,6-diazacyclododec-3-en-8-yl)amino)-1-oxobutan-2-yl)deca-2,4-dienamide] | improved cytotoxicity relative to 1 | potency compared with parent natural product 1 in screening (FIG. 6A, 6B) (RPMI 8226 cells [2]): more potent than the parent natural product 1
C[C@H]1/C=C/C(=O)NCC[C@H](O)C[C@H](NC(=O)[C@@H](NC(=O)/C=C/C=C/CCCCCC2CCCCC2)[C@@H](C)O)C(=O)N1 [compound 49, (2E,4E)-10-cyclohexyl-N-((2S,3R)-3-hydroxy-1-(((5S,8S,10S,E)-10-hydroxy-5-methyl-2,7-dioxo-1,6-diazacyclododec-3-en-8-yl)amino)-1-oxobutan-2-yl)deca-2,4-dienamide] | roughly similar activity as the natural product | 
C[C@H]1/C=C/C(=O)NCC[C@H](O)C[C@H](NC(=O)[C@@H](NC(=O)/C=C/C=C/CCCCCC(F)(F)F)[C@@H](C)O)C(=O)N1 [compound 51, (2E,4E)-11,11,11-trifluoro-N-((2S,3R)-3-hydroxy-1-(((5S,8S,10S,E)-10-hydroxy-5-methyl-2,7-dioxo-1,6-diazacyclododec-3-en-8-yl)amino)-1-oxobutan-2-yl)undeca-2,4-dienamide] | essentially inactive at both concentrations tested | 
